Results published in patent US20260125426A1, “CYCLIC CELL-PENETRATING PEPTIDES AND USES THEREOF” (Ohio State Innovation Foundation, priority 2022, published 2026).
Values joined by “and” are separate entries in the source; they are usually repeats but may differ in a detail not shown here. Equal values may be shown once. *1 amine or outer side, *2 acyl side, *3 side chain or, on linkers, in order; H or OH if unused. Bridges are numbered along the chain shown (N, C = ends). Bi = bismuth bicyclization of the Cys thiols (peptides reacted with BiBr3), [Bi]([*:1])([*:2])[*:3]; Lys(NF) = lysine with naphthofluorescein (NF) attached to its side chain; Lys(dye) = not defined here; AEEA = NCCOCCOCC(=O)O

tested on: HeLa cells; experiment: Flow cytometry of HeLa cells, total cellular uptake of TMR-labeled peptides; format: cell-based; conditions: 5 μM TMR-labeled peptide, 2 h, 37° C., relative to CPP12 (100%)
Description: (§1) Flow cytometry. HeLa cells were cultured in 12-well plates (1.5×10^5 cells/well) overnight. The following day, cells were incubated with 5 μM fluorescently labeled peptide for 2 h in DMEM supplemented with 1% FBS and 1% antibiotic solution. DMSO was used as a negative control. After incubation, cells were detached from plate with 350 μL of 0.25% Trypsin-EDTA solution, diluted with Dulbecco's phosphate buffered saline (DPBS), and pelleted at 300 g for 5 min. Cells were washed twice with DPBS, resuspended in DPBS, and analyzed on a BD FACS LSR II flow cytometer.
(§2) To evaluate their cell entry efficiencies, the BCPs and pBCPs were labeled with tetramethylrhodamine (TMR) or naphthofluorescein (NF) on a C-terminal lysine residue (FIGS. 2A, 2B, and 4). […] The labeled peptides were purified again by reversed-phase HPLC and their authenticity was confirmed by high-resolution mass spectrometry.
(§3) HeLa cells were treated with 5 μM dye-labeled BCPs (or pBCPs), CPP12, Tat, or DMSO (equal volume) for 2 h at 37° C., washed to remove any peptides in the medium, and analyzed by flow cytometry. The mean fluorescence intensity (MFI) value of TMR (which is pH insensitive) reflects the total amount of CPP inside the HeLa cells (total cellular uptake). On the other hand, NF is a pH sensitive dye, having an apparent pKa of 7.8. NF is unprotonated and fluorescent inside the neutral environment of the cytosol (and nucleus) but is nearly completely protonated and nonfluorescent in the acidic environments of endosomes and lysosomes. Thus, the MFI value of NF provides a convenient estimate of the peptides that have reached the cytosol.

Row | Compound | MFI^TMR (Total Cellular Uptake) [%]
1 | Ac-CFΦCRRRRC [BCP1] | 12 ± 2
2 | Ac-CFΦRRCRRC [BCP3] | 13 ± 2
3 | Ac-CRRRRCΦFC [BCP2] | 15 ± 4
4 | CARCRRRWYWC (Ac-CARCRRRWYWC-{AEEA-Lys(dye)-NH2}; linker 1-4-11 via Bi (inferred); reading uncertain) [pBCP3] | 3
5 | CARCRRYWC (Ac-CARCRRYWC-{AEEA-Lys(dye)-NH2}; linker 1-4-9 via Bi (inferred); reading uncertain) [pBCP5] | 9.2
6 | CFWRCRRC (Ac-CFWRCRRC-{AEEA-Lys(dye)-NH2}; linker 1-5-8 via Bi (inferred); reading uncertain) [pBCP6] | 9.0 ± 0.7
7 | CRRCRWFC (Ac-CRRCRWFC-{AEEA-Lys(dye)-NH2}; linker 1-4-8 via Bi (inferred); reading uncertain) [pBCP7] | 10 ± 0.1
8 | CRRRRCWYWC (Ac-CRRRRCWYWC-{AEEA-Lys(dye)-NH2}; linker 1-6-10 via Bi (inferred); reading uncertain) [pBCP1] | 9.3 ± 1.9
9 | CRRRWYWCAAC (Ac-CRRRWYWCAAC-{AEEA-Lys(dye)-NH2}; linker 1-8-11 via Bi (inferred); reading uncertain) [pBCP8] | 8.4

tested on: HeLa cells; experiment: Flow cytometry of HeLa cells, cytosolic entry of NF-labeled peptides; format: cell-based; conditions: 2 μM NF-labeled peptide, 2 h, 37° C., 1% FBS, relative to CPP12 (100%)
Description: as §1, §2, §3
Note that cell entry assays were performed by treating HeLa cell with 2 μM naphthofluorescein (NF)-labeled peptide for 2 h at 37° C. Under this condition, the BCPs enter the cell almost exclusively by endocytosis and endosomal escape. A small fraction of the CPP12^NF-treated cells (˜10%) underwent direct translocation of CPP12^NF; this fraction of highly fluorescent cells was not included in the data analysis. The cellular entry of pBCP427-4 was confirmed by live-cell confocal microscopy (FIG. 6).
BCP16a, BCP16b, and pBCP427-4a were labeled with NF and their cytosolic entry efficiencies were assessed by flow cytometry analysis of HeLa cells after treatment with 2 μM peptide at 37° C. for 2 h. […] CPP12 was previously shown to be highly sensitive to serum proteins (Buyanova, M., et al., (2022). Discovery of a Cyclic Cell-Penetrating Peptide with Improved Endosomal Escape and Cytosolic Delivery Efficiency. Molecular pharmaceuties, 19 (5). 1378-1388).

Row | Compound | MFI^NF (Cytosolic Entry)
10 | CC(=O)N[C@@H](C)C(=O)N[C@@H](Cc1c[nH]c2ccccc12)C(=O)N[C@@H](CO)C(=O)N[C@@H](CC(N)=O)C(=O)N[C@@H](Cc1c[nH]c2ccccc12)C(=O)N[C@@H](Cc1ccccc1)C(=O)N[C@@H](C)C(=O)N[C@@H](Cc1ccccc1)C(=O)N[C@@H](CCC(N)=O)C(=O)N[C@@H](CCCNC(=N)N)C(=O)N[C@@H](CCCNC(=N)N)C(=O)N[C@@H](C)C(=O)NCCOCCOCC(=O)N[C@@H](CCCCNC(=O)c1ccc2c(c1)C(=O)OC21c2ccc3cc(O)ccc3c2Oc2c1ccc1cc(O)ccc21)C(N)=O [pBCP427-4Ala] | 18% and 18 ± 2%
11 | Ac-CRRRφCF(dNle)QWC [BCP9A5-2] | 43 ± 2%
12 | Ac-CRRRφRFCQWC [BCP9A5-1] | 30 ± 1%
13 | Ac-CWSNWCFQRRC (Ac-CWSNWCFQRRC-{AEEA-Lys(NF)-NH2}; linker 1-6-11 via Bi (inferred)) [pBCP427-5] | 76 ± 1%
14 | Ac-CWSNWFCFQRRCR (Ac-CWSNWFCFQRRCR-{AEEA-Lys(NF)-NH2}; linker 1-7-12 via Bi (inferred)) [pBCP427-3] | 101 ± 3%
15 | Ac-CWSNWFCFQRRCRR (Ac-CWSNWFCFQRRCRR-{AEEA-Lys(NF)-NH2}; linker 1-7-12 via Bi (inferred)) [pBCP427-2] | 45 ± 1%
16 | Ac-CWSNWFCFQRRCRRF (Ac-CWSNWFCFQRRCRRF-{AEEA-Lys(NF)-NH2}; linker 1-7-12 via Bi (inferred)) [pBCP427-1] | 94 ± 22%
17 | Ac-CWSNWFCQRRC (Ac-CWSNWFCQRRC-{AEEA-Lys(NF)-NH2}; linker 1-7-11 via Bi (inferred)) [pBCP427-6] | 65 ± 1%
18 | Ac-CWSQWFCFQRRC (Ac-CWSQWFCFQRRC-{AEEA-Lys(NF)-NH2}; linker 1-7-12 via Bi (inferred)) [pBCP427-7] | 69 ± 3%
19 | Ac-CrRrRCΦfC [BCP4] | 51 ± 16%
20 | CWSNWFCFQRRCRRFA (Ac-CWSNWFCFQRRCRRFA-{AEEA-Lys(dye)-NH2}; linker 1-7-12 via Bi (inferred); reading uncertain) [pBCP427] | 131 ± 1%
21 | HS-CH2-CO-rRrRC(Bta)φC [BCP15] | 108 ± 4%
22 | HS-CH2-CO-rRrRCΦφC [BCP14] | 86 ± 2%
23 | HS-CH2-CO-rRrRCφ(Bta)φC [BCP16b] | 98% and 98 ± 1%
24 | HS-CH2-CO-rRrRcΦ(Bta)φC [BCP16a] | 156% and 156 ± 4%
25 | HS-CH2-CO-φSNφFCfQrRC [BCP427-2] | 118 ± 4%
26 | HS-CH2-CO-φSNφFCfQrRCRrFa [BCP427-1] | 84 ± 2%

same assay, conditions: 2 μM NF-labeled peptide, 2 h, 37° C., 10% FBS, relative to CPP12

Row | Compound | cytosolic entry efficiency in the presence of 10% FBS [%]
27 | HS-CH2-CO-rRrRCφ(Bta)φC [BCP16b] | 169
28 | HS-CH2-CO-rRrRcΦ(Bta)φC [BCP16a] | 821

same assay, conditions: 5 μM

Row | Compound | cytosolic entry, fold less active than CPP12 [fold] | cytosolic entry, fold more active than Tat [fold]
29 | CWYWRRCRAC (Ac-CWYWRRCRAC-{AEEA-Lys(dye)-NH2}; linker 1-7-10 via Bi (inferred); reading uncertain) [pBCP10] | 6 | 5

same assay, conditions: 5 μM NF-labeled peptide, 2 h, 37° C., relative to CPP12 (100%)

Row | Compound | MFI^NF (Cytosolic Entry)
30 | AWYRRARAA [pBCP4a, linear variant of pBCP4, three cysteine residues replaced with Ala] | 5.4%
31 | Ac-CFΦRRCrrC [BCP8] | 38 ± 1%
32 | Ac-CFΦRRRRCAAAC [BCP11] | 13%
33 | Ac-CFΦRrRCAAC [BCP13] | 30 ± 3%
34 | Ac-CfΦRrCRrC [BCP10] | 56 ± 32%
35 | Ac-CrRrRCΦfC [BCP4] | 51 ± 16%
36 | Ac-CrRrRCΦfFC [BCP5] | 45 ± 1%
37 | Ac-CΣΦRRCrrC [BCP9] | 43%
38 | CFFFRRRCRAC (Ac-CFFFRRRCRAC-{AEEA-Lys(dye)-NH2}; linker 1-8-11 via Bi (inferred); reading uncertain) [pBCP17] | 15 ± 1%
39 | CFFRRRCRAC (Ac-CFFRRRCRAC-{AEEA-Lys(dye)-NH2}; linker 1-7-10 via Bi (inferred); reading uncertain) [pBCP16] | 15 ± 1%
40 | CRRRRCWYWC (Ac-CRRRRCWYWC-{AEEA-Lys(dye)-NH2}; linker 1-6-10 via Bi (inferred); reading uncertain) [pBCP1] | 12 ± 4%
41 | CWSNWFCFQRRCRRFA (Ac-CWSNWFCFQRRCRRFA-{AEEA-Lys(dye)-NH2}; linker 1-7-12 via Bi (inferred); reading uncertain) [pBCP427] | 41% and 41 ± 5%
42 | CWYCRRRC (Ac-CWYCRRRC-{AEEA-Lys(dye)-NH2}; linker 1-4-8 via Bi (inferred); reading uncertain) [pBCP11] | 14 ± 1%
43 | CWYRCRRC (Ac-CWYRCRRC-{AEEA-Lys(dye)-NH2}; linker 1-5-8 via Bi (inferred); reading uncertain) [pBCP13] | 11 ± 1%
44 | CWYRRRCAC (Ac-CWYRRRCAC-{AEEA-Lys(dye)-NH2}; linker 1-7-9 via Bi (inferred); reading uncertain) [pBCP12] | 12 ± 1%
45 | CWYRRRCRAC (Ac-CWYRRRCRAC-{AEEA-Lys(dye)-NH2}; linker 1-7-10 via Bi (inferred); reading uncertain) [pBCP9] | 12 ± 4%
46 | CWYWRRCRAC (Ac-CWYWRRCRAC-{AEEA-Lys(dye)-NH2}; linker 1-7-10 via Bi (inferred); reading uncertain) [pBCP10] | 17% and 17 ± 2%
47 | CYYRRCRAC (Ac-CYYRRCRAC-{AEEA-Lys(dye)-NH2}; linker 1-6-9 via Bi (inferred); reading uncertain) [pBCP15] | 16 ± 3%

same assay, conditions: 5 μM, linear Ala variant vs cyclized peptide

Row | Compound | cytosolic entry, fold less active than pBCP4 [fold]
48 | AWYRRARAA [pBCP4a, linear variant of pBCP4, three cysteine residues replaced with Ala] | ~2
